From patent publication US7001983B1, “Antipathogenic synthetic peptides and compositions comprising them” (priority 1997, dated 2006)
Values joined by “and” are separate entries in the source; they are usually repeats but may differ in a detail not shown here. Equal entries are not always repeated. Numbered stars: 1 amine (or outer) side, 2 acyl side, 3 side chain; on linkers, the order of the positions; unused ones are H or OH. Square brackets hold non-standard residues; d marks the D form. Peptide text beside a SMILES is read from it. Ethylenediamine = C(CN[*:2])N[*:1]

Key:
Escherichia coli D21 = type: cell-based; conditions: 100% inhibition of growth after 18–20 h
[1] = system: Acinetobacter calcoaceticus Ac11; type: cell-based; conditions: 100% inhibition of growth after 18–20 h
Bacillus megaterium Bm11 = type: cell-based; conditions: 100% inhibition of growth after 18–20 h
[2] = system: Salmonella typhimurium LT2; assay: Antibacterial activity (MIC), growth inhibition in LB medium; type: cell-based; conditions: 100% inhibition of growth after 18–20 h
Experimental: (§1) (viii) Antibacterial activity of the peptides. The antibacterial activity of the diastereomers was examined in sterile 96-well plates (Nunc F96 microtiter plates) in a final volume of 100 μL as follows: Aliquots (50 μl) of a suspension containing bacteria at a concentration of 10^6 Colony-Forming Units (CFU)/ml LB (Lauria broth) medium were added to 50 μL of water or 66% pooled normal human serum in PBS, containing the peptide in 2-fold serial dilutions. Growth inhibition was determined by measuring the absorbance at 492 nm with a Microplate autoreader E1309 (Bio-tek Instruments), following incubation for 18–20 h at 37° C. […] The bacteria used were: Escherichia coli D21, Pseudomonas aeruginosa ATCC 27853, Acinetobacter calcoaceticus Ac11, Salmonella typhimurium LT2, Bacillus megaterium Bm11, Micrococcus Iuteus ATCC 9341, Bacillus subtilis ATCC 6051.

[3] = system: Pseudomonas aeruginosa ATCC 27853; conditions: 100% inhibition of growth after 18–20 h
Experimental: (viii) Antibacterial activity of the peptides.
Antibacterial activity of the mixtures was determined as described in Experimental procedures, section (xii).

[4] = system: human red blood cells (hRBC); assay: Hemolysis of human red blood cells; type: cell-based; conditions: hRBC; for % hemolysis at 50 μM peptide: 30 min at 37° C.
Experimental: (ix) Hemolysis of human red blood cells. The peptides were tested for their hemolytic activities against human red blood cells (hRBC). Fresh hRBC with EDTA were rinsed 3 times with PBS (35 mM phosphate buffer/0.15 M NaCl, pH 7.3) by centrifugation for 10 min at 800 g and resuspended in PBS. Peptides dissolved in PBS were then added to 50 μL of a solution of the stock hRBC in PBS to reach a final volume of 100 μL (final erythrocyte concentration, 5% v/v). The resulting suspension was incubated under agitation for 30 min at 37° C. The samples were then centrifuged at 800 g for 10 min. Release of hemoglobin was monitored by measuring the absorbance of the supernatant at 540 nm. Controls for zero hemolysis (blank) and 100% hemolysis consisted of hRBC suspended in PBS and Triton 1%, respectively.

[5] = system: Micrococcus Iuteus ATCC 9341; assay: Antibacterial activity (MIC), growth inhibition in LB medium; type: cell-based, Micrococcus luteus; conditions: 100% inhibition of growth after 18–20 h
Experimental: as §1

[6] = system: Bacillus subtilis ATCC 6051; type: cell-based; conditions: 100% inhibition of growth after 18–20 h

| Compound | Minimal Inhibitory Concentration E. coli (D21) (Escherichia coli D21) [µM] | Minimal Inhibitory Concentration A. calcoaceticus (Ac11) [1] | Minimal Inhibitory Concentration B. megaterium (Bm11) (Bacillus megaterium Bm11) [µM] | Minimal Inhibitory Concentration S. typhimurium (LT2) [2] [µM] | Minimal Inhibitory Concentration P. aeruginosa (ATCC 27853) [3] [µM] | % hemolysis at 50 μM peptide [4] [%] | Minimal Inhibitory Concentration M. luteus (ATCC 9341) [5] [µM] | Minimal Inhibitory Concentration B. subtilis (ATCC 6051) [6] [µM] | hemolytic activity up to the maximum concentration tested ([4]; up to 50 μM) |
| --- | --- | --- | --- | --- | --- | --- | --- | --- | --- |
| CC[C@H](C)[C@H](NC(=O)[C@H](CCCCN)NC(=O)[C@H]1CCCN1C(=O)[C@@H](NC(=O)[C@H](CC(C)C)NC(=O)[C@H](C)NC(=O)[C@H](Cc1ccccc1)NC(=O)[C@H](Cc1ccccc1)NC(=O)CNC(=O)[C@H](CCCCN)NC(=O)[C@@H](N)CCCCN)[C@@H](C)CC)C(=O)N[C@H](C(=O)N[C@@H](CO)C(=O)N[C@@H](CO)C(=O)N1CCC[C@H]1C(=O)N[C@@H](CC(C)C)C(=O)N[C@@H](Cc1ccccc1)C(=O)N[C@@H](CCCCN)C(=O)N[C@H](C(=O)N[C@H](CC(C)C)C(=O)N[C@H](CC(C)C)C(=O)N[C@@H](CO)C(=O)N[C@@H](C)C(=O)N[C@H](C(=O)O)C(C)C)[C@@H](C)O)[C@@H](C)CC [Peptide 6, K^1K^2[D]P^7L^18L^19[1-22]-par] | 15 | 6 µM | 6 | 120 | 60 | 0 |  |  |  |
| CC[C@H](C)[C@H](NC(=O)[C@H](CCCCN)NC(=O)[C@H]1CCCN1C(=O)[C@@H](NC(=O)[C@H](CC(C)C)NC(=O)[C@H](C)NC(=O)[C@H](Cc1ccccc1)NC(=O)[C@H](Cc1ccccc1)NC(=O)CN)[C@@H](C)CC)C(=O)N[C@H](C(=O)N[C@@H](CO)C(=O)NCCN)[C@@H](C)CC [Peptide 7, [D]P^7-[1-11]-TApar] (H-GFFALI[dP]KIIS-Ethylenediamine; N-terminus assumed) | >120 | >120 µM | 30 | >120 | >120 | 0 |  |  |  |
| CC[C@H](C)[C@H](NC(=O)[C@H](CCCCN)NC(=O)[C@@H]1CCCN1C(=O)[C@@H](NC(=O)[C@H](CC(C)C)NC(=O)[C@H](C)NC(=O)[C@H](Cc1ccccc1)NC(=O)[C@H](Cc1ccccc1)NC(=O)CN)[C@@H](C)CC)C(=O)N[C@H](C(=O)N[C@@H](CO)C(=O)N[C@@H](CO)C(=O)N1CCC[C@H]1C(=O)N[C@@H](CC(C)C)C(=O)N[C@@H](Cc1ccccc1)C(=O)N[C@@H](CCCCN)C(=O)N[C@H](C(=O)N[C@@H](CC(C)C)C(=O)N[C@@H](CC(C)C)C(=O)N[C@@H](CO)C(=O)N[C@@H](C)C(=O)N[C@H](C(=O)NCC(=O)N[C@@H](CO)C(=O)N[C@@H](C)C(=O)N[C@@H](CC(C)C)C(=O)N[C@@H](CO)C(=O)N[C@@H](CO)C(=O)N[C@@H](CO)C(=O)NCC(=O)NCC(=O)N[C@@H](CCC(N)=O)C(=O)N[C@@H](CCC(=O)NCCN)C(=O)NCCN)C(C)C)[C@@H](C)O)[C@@H](C)CC [Peptide 8, TApar] | 3 | 3 µM | 0.8 | 15 | 8 | 100 | 5 | 1.5 |  |
| CC[C@H](C)[C@H](NC(=O)[C@H](CCCCN)NC(=O)[C@H]1CCCN1C(=O)[C@@H](NC(=O)[C@H](CC(C)C)NC(=O)[C@H](C)NC(=O)[C@H](Cc1ccccc1)NC(=O)[C@H](Cc1ccccc1)NC(=O)CN)[C@@H](C)CC)C(=O)N[C@H](C(=O)N[C@@H](CO)C(=O)N[C@@H](CO)C(=O)N1CCC[C@H]1C(=O)N[C@@H](CC(C)C)C(=O)N[C@@H](Cc1ccccc1)C(=O)N[C@@H](CCCCN)C(=O)N[C@H](C(=O)N[C@@H](CC(C)C)C(=O)N[C@@H](CC(C)C)C(=O)N[C@@H](CO)C(=O)N[C@@H](C)C(=O)N[C@H](C(=O)NCC(=O)N[C@@H](CO)C(=O)N[C@@H](C)C(=O)N[C@@H](CC(C)C)C(=O)N[C@@H](CO)C(=O)N[C@@H](CO)C(=O)N[C@@H](CO)C(=O)NCC(=O)NCC(=O)N[C@@H](CCC(N)=O)C(=O)N[C@@H](CCC(=O)NCCN)C(=O)NCCN)C(C)C)[C@@H](C)O)[C@@H](C)CC [Peptide 12, [D]P^7-TApar] | 10 | 5 µM | 1.2 |  |  | 49 | 5 | 2 |  |
| CC[C@H](C)[C@H](NC(=O)[C@H](CCCCN)NC(=O)[C@@H]1CCCN1C(=O)[C@@H](NC(=O)[C@H](CC(C)C)NC(=O)[C@H](C)NC(=O)[C@H](Cc1ccccc1)NC(=O)[C@H](Cc1ccccc1)NC(=O)CN)[C@@H](C)CC)C(=O)N[C@H](C(=O)N[C@@H](CO)C(=O)N[C@@H](CO)C(=O)N1CCC[C@H]1C(=O)N[C@@H](CC(C)C)C(=O)N[C@@H](Cc1ccccc1)C(=O)N[C@@H](CCCCN)C(=O)N[C@H](C(=O)N[C@H](CC(C)C)C(=O)N[C@H](CC(C)C)C(=O)N[C@@H](CO)C(=O)N[C@@H](C)C(=O)N[C@H](C(=O)NCC(=O)N[C@@H](CO)C(=O)N[C@@H](C)C(=O)N[C@@H](CC(C)C)C(=O)N[C@@H](CO)C(=O)N[C@@H](CO)C(=O)N[C@@H](CO)C(=O)NCC(=O)NCC(=O)N[C@@H](CCC(N)=O)C(=O)N[C@@H](CCC(=O)NCCN)C(=O)NCCN)C(C)C)[C@@H](C)O)[C@@H](C)CC [Peptide 14, [D]L^18L^19-TApar] | 3.5 | 1.5 µM and 2.5 µM | 0.6 |  |  | 100 | 2.5 | 1.5 |  |
| CC[C@@H](C)[C@@H](NC(=O)[C@H](CC(C)C)NC(=O)[C@H](C)NC(=O)[C@@H]1CCCN1C(=O)[C@H](CC(C)C)NC(=O)CNC(=O)[C@@H](NC(=O)[C@@H](NC(=O)[C@H](CC(C)C)NC(=O)[C@H](NC(=O)[C@H](CCCCN)NC(=O)[C@H](CC(C)C)NC(=O)[C@H](NC(=O)[C@H](C)NC(=O)CNC(=O)[C@@H](NC(=O)CN)[C@@H](C)CC)C(C)C)C(C)C)[C@@H](C)O)[C@@H](C)O)C(=O)N[C@@H](CO)C(=O)N[C@@H](Cc1c[nH]c2ccccc12)C(=O)N[C@H](C(=O)N[C@H](CCCCN)C(=O)N[C@@H](CCCNC(=N)N)C(=O)N[C@@H](CCCCN)C(=O)N[C@@H](CCCNC(=N)N)C(=O)N[C@@H](CCC(N)=O)C(=O)N[C@@H](CCC(N)=O)C(=O)O)[C@@H](C)CC [Peptide 19, [D]-V^5V^8I^17K^21-mel-COOH] | 18 | 18 µM | 1.2 |  |  | 0 | 50 | 8 | practically devoid of hemolytic activity |
